Assay results published in the supplement of paper PMC5412046.
Structures can show the parent of a compound that is named as a salt.

How the values were obtained:
SB.mhdgc-1 = test: AC50 for growth inhibition (viability) (log10 M); higher = less potent; conditions: SB.mhdgc-1 (hereditary c.1380delA CDH1 gastric cancer)
Procedure, shortened: (§1)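 Gastric cancer cells derived from patients with hereditary or sporadic disease were seeded at 500 cells in 5 μL medium per 1536 well. A pintool delivered 23 nL of compound in DMSO, as 11 threefold dilutions from a final 46 μM. After 48 h, CellTiter-Glo was added for 30 min at room temperature and luminescence was read on a ViewLux. The log half-maximal activity concentration was taken from a four-parameter fit of viability normalised to DMSO, using only high-quality curve classes.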

SB.msgc-1 = test: as above; conditions: SB.msgc-1 (sporadic gastric cancer)
Procedure, shortened: as §1

| SMILES | AC50 for growth inhibition (log10 M) (SB.mhdgc-1) | AC50 for growth inhibition (log10 M) (SB.msgc-1) |
| --- | --- | --- |
| CN(C1CCc2c(c3ccccc3n2CC(=O)O)C1)[S+](=O)([O-])c1ccc(F)cc1 (configuration not stated) | -5.03 | -4.73 |
| CC(C)C[C@@H](C(=O)N[C@H](C(=O)OC1CCCC1)c1ccccc1)[C@H](O)C(=O)NO [Tosedostat] | -5.43 | -4.83 |
| CNCC[C@H](Oc1cccc2ccccc12)c1cccs1 [Duloxetine hydrochloride] | -5.53 | -5.58 |
| CCOC(=O)[C@H](CCc1ccccc1)N[C@H]1CCc2ccccc2N(CC(=O)O)C1=O [Benzapril] | -5.03 | -4.68 |
| CC1(C)CC(=O)c2c(C(F)(F)F)nn(-c3ccc(C(N)=O)c(NC4CCC(O)CC4)c3)c2C1 (configuration not stated) [SNX-2112] | -6.48 | -7.43 |
| COc1ccc2c(c[n+](C)c3c4cc5c(cc4ccc23)OCO5)c1OC [Chelerythrine chloride] | -5.08 | -5.03 |
| CC(C)C1=C(O)C=C(O)C(=C1)C/2=N/NC(=O)N2C3=CC4=C(C=C3)[N](C)C=C4 [Ganetespib] | -7.33 | -6.93 |
| C[N]1C=C(C2=CC=CC=C12)\C3=C(\C(=O)NC3=O)C4=C[N](C5CCN(CC5)CC6=NC=CC=C6)C7=C4C=CC=C7 [Enzastaurin] | -4.98 | -4.98 |
| Nc1nc(N)c(N=O)c(OCC2CCCCC2)n1 [NU-6027] | -5.33 | -4.73 |
| O=C(Cc1ccc(-c2ccc(OCCN3CCOCC3)cc2)cn1)NCc1ccccc1 [KX-01] | -8.18 | -7.48 |
| Cc1cn[nH]c1 [Fomepizole] | -6.68 | -7.18 |
| COc1ccc([S+](=O)([O-])N(C(C)=O)c2ccccc2/C=C/c2cc[n+]([O-])cc2)cc1 [IVX-214] | -6.53 | -6.38 |
| CC1=C(/C=C/C(C)=C/C=C/C(C)=C\C(=O)O)C(C)(C)CCC1 [Isotretinoin] | -4.63 | -5.33 |
| CC[C@@H]1[C@@H](C)O[C@@](O)([C@@H](C)[C@H](O)[C@H](C)[C@H]2OC(=O)/C=C/C=C/[C@H](C)[C@@H]([C@@H](C)[C@@H](O)[C@H](C)[C@@]3(O)C[C@@H](O[C@H]4C[C@H](O)[C@H](O)[C@H](C)O4)[C@H](CC)[C@@H](C)O3)OC(=O)/C=C/C=C/[C@@H]2C)C[C@H]1O[C@H]1C[C@H](O)[C@H](O)[C@H](C)O1 [Azalomycin-B] | -6.38 | -6.33 |
| CCOc1cc2c(c(F)c1OCC)C(=N)N(CC(=O)c1cc(N3CCOCC3)c(OC)c(C(C)(C)C)c1)C2 [E5555] | -5.03 | -4.68 |
| CC(C)C[C@H](NC(=O)c1cc2ccccc2s1)C(=O)N1CCN(C(=O)[C@H](CO)N[S+](=O)([O-])c2ccc(Cl)cc2Cl)CC1 | -4.73 | -4.73 |
| CN[C@@H](C)C(=O)N[C@H]1CCCC[C@H]2CC[C@@H](C(=O)N[C@@H](c3ccccc3)c3cn(CCCCc4ccc(CCCCn5cc([C@@H](NC(=O)[C@@H]6CC[C@@H]7CCCC[C@H](NC(=O)[C@H](C)NC)C(=O)N76)c6ccccc6)nn5)cc4)nn3)N2C1=O [SM-164] | -5.88 | -4.68 |
| CN[C@@H]1[C@H](O)[C@H](NC)[C@H]2O[C@@]3(O)C(=O)C[C@@H](C)O[C@H]3O[C@@H]2[C@H]1O [Spectinomycin hydrochloride] | -5.93 | -6.08 |

| SMILES | AC50 for growth inhibition (log10 M) (SB.mhdgc-1) | AC50 for growth inhibition (log10 M) (SB.msgc-1) |
| --- | --- | --- |
| S=C(NCc1ccc2c(c1)OCO2)N1CCN(c2ncnc3c2oc2ccccc23)CC1 [Amuvatinib] | -4.92 | -5.57 |
| CC1=CC=C(C=C1)\C2=N\C3=CC=C(Cl)C=C3OC2 [AR7] | -5.03 | -5.03 |
| CN[C@@H](C)C(=O)N[C@H]1CN(C(=O)CC(C)C)CC[C@H]2CC[C@@H](C(=O)NC(c3ccccc3)c3ccccc3)N2C1=O [AT-406] | -5.63 | -4.98 |
| CC1(C)CC(=O)c2c(C(F)(F)F)nn(-c3ccc(C(N)=O)c(NC4CCC(OC(=O)CN)CC4)c3)c2C1 (configuration not stated) [SNX-5422] | -6.58 | -7.13 |
| CN1CCCC(CC1)N2\N=C(CC3=CC=C(Cl)C=C3)/C4=C(C=CC=C4)C2=O (configuration not stated) [Azelastine hydrochloride] | -6.08 | -6.03 |
| O=C1\C=C(/OC2=C1C=CC=C2C3=CC=CC=C3)N4CCOCC4 | -5.18 | -4.73 |
| CCOC(=O)N1c2ccc(C(F)(F)F)cc2[C@@H](N(Cc2cc(C(F)(F)F)cc(C(F)(F)F)c2)C(=O)OC)C[C@H]1CC [Torcetrapib] | -4.73 | -5.18 |
| CC(C)c1onc(-c2c(Cl)cccc2Cl)c1COc1ccc(/C=C/c2cccc(C(=O)O)c2)c(Cl)c1 [GW-4064X] | -5.33 | -4.73 |
| COc1cc(N2CCC(C(N)=O)CC2)ccc1Nc1nc(N)c(Cl)c(Nc2ccccc2[S+](=O)([O-])C(C)C)n1 | -6.03 | -5.58 |
| CCCn1c(=O)c2[nH]c(C34CC5CC3C[C@@H](C5)C4)nc2n(CCC)c1=O [Rolofylline] | -4.68 | -4.83 |
| O=C(CCCCCCC(=O)Nc1ccc([C@H]2O[C@@H](CSc3nc(-c4ccccc4)c(-c4ccccc4)o3)C[C@@H](c3ccc(CO)cc3)O2)cc1)NO [Tubacin] | -4.73 | -4.58 |
| Cl.Nc1ccn([C@@H]2O[C@H](CO)[C@@H](O)C2(F)F)c(=O)n1 [Gemcitabine] | -7.23 | -7.53 |
| CC(C)(F)C[C@H](N[C@@H](c1ccc(-c2ccc([S+](C)(=O)[O-])cc2)cc1)C(F)(F)F)C(=O)NC1(C#N)CC1 [Odanacatib] | -5.38 | -4.88 |
| Cc1nc(NC(=O)N2CCC[C@H]2C(N)=O)sc1-c1csc(C(C)(C)C)n1 [A-66] | -5.38 | -6.53 |
| CC/C(=C(\c1ccccc1)c1ccc(OCCN(C)C)cc1)c1ccccc1 [Tamoxifen] | -4.68 | -4.73 |
| COc1cc2c(cc1OC)CN(CCc1ccc(NC(=O)c3cc(OC)c(OC)cc3NC(=O)c3cnc4ccccc4c3)cc1)CC2 [Tariquidar] | -5.03 | -5.08 |
| C=CC(=O)Nc1cccc(Nc2nc(NC3CCC(N(C)C)CC3)nc3c2ncn3C(C)C)c1 (configuration not stated) | -7.88 | -7.43 |
| CN(C)Cc1c(C(=O)NCCOc2ccc(C(=O)NO)cc2)oc2ccccc12 [Abexinostat] | -5.13 | -5.93 |
